Laboratory results taken from paper PMC8631675, “Neuroprotective effects of some epigenetic modifying drugs’ on Chlamydia pneumoniae-induced neuroinflammation: A novel model” (PLoS ONE, 2021).
Where two headings read alike, the source gives them in different places.

Tests used:
HMC3 microglia cells = test: Cell proliferation (cytotoxicity) analysis with xCELLigence, HMC3; assay type: cell-based, human; details: for IC50: Homo sapiens
Description: (§1) Cell proliferation analysis was performed with xCELLigence Real-Time Cell Analysis System to assess TSA, RG108, givinostat, and rifampin concentrations for use in both models. Differentiated SH-SY5Y and HMC3 microglia cells were seeded at a 5x10^3 density per well and incubated 24 h until CI values reached a log phase. The system stopped at the end of 24 h, 100, 10 and 1 μM TSA, givinostat, RG108 and rifampin were applied on current media and the cell viability was tracked. […] Simultaneously, slope plots were drawn using the CI values at 24 and 48 hours, and the statistical significance of the values discovered by assuming the average CI values of the control wells to be 100% was calculated.

[1] = tested on: differentiated SH-SY5Y cells; test: Cell proliferation (cytotoxicity) analysis with xCELLigence, SH-SY5Y; assay type: cell-based, human; details: for IC50: Homo sapiens, SH-SY5Y
Description: as §1

[2] = tested on: differentiated SH-SY5Y cells; test: Cell viability against Aβ-induced neurotoxicity, xCELLigence; assay type: cell-based, human; details: 24 h pretreatment (drugs 100 nM; CFS 1 μg/ml + IFN-γ; LPS 100 ng/ml + IFN-γ), then 5 μM Aβ (1–42) aggregates 24 h
Description: Pathological deterioration in AD is mainly associated with overproduction of the Aβ peptide and the Aβ (1–42) variant is the toxic form that is more predominant in Alzheimer’s patients. In this study, a modified oligomeric Aβ (1–42) neurotoxicity analysis protocol was applied in order to elucidate the effects of treatment groups on SH-SY5Y cell viability in the presence of Aβ [56]. In order to model Aβ-induced neurotoxicity in vitro, an oligomeric form of the Aβ1–42 peptide was prepared by diluting with ice-cold Ham’s F12 Nutrient Mixture medium dissolved in PBS containing 0.02 M NaOH at a final concentration of 50 μM and kept in a 37°C incubator for 7 days to form peptide aggregates prior to the experiments. 5x10^3 SH-SY5Y cells were differentiated inside the xCELLigence instrument for 5 days and treated with 100 nM TSA, RG108, givinostat, rifampin; 100 ng/ml LPS+IFN-ɣ or 1 μg/ml CFS+IFN-ɣ for 24 h in order to evaluate neuroprotection. The co-culture was performed in the same way as the neuroinflammation model. Neurotoxicity was obtained instead of neuroinflammation by diluting to 5 μM with fresh medium and adding Aβ1–42 aggregates to the wells for 24 h in 100 μl of medium. Cell viability data was then monitored for 24 h and analyzed within the instrument.

[3] = tested on: differentiated SH-SY5Y cells; test: Annexin V-PI staining of Aβ-induced cell death, flow cytometry; assay type: cell-based, human; details: pretreatment (drugs 100 nM; LPS 100 ng/ml + IFN-γ; CFS 1 μg/ml + IFN-γ) + 5 μM Aβ 24 h
Description: To determine neuronal apoptosis associated with Aβ exposure, 25x10^3 differentiated SH-SY5Y cells were seeded in 24-well plates and Aβ was applied. After 24 h, cells were trypsinized and staining was performed according to the CF 488A Annexin V and PI Apoptosis Kit (Biotium, USA, Cat. No: 30061) protocol. After washing the cells with 1xPBS, the working solution was prepared by diluting the PI with Annexin V binding buffer included in the kit. 5 μl Annexin V and 2 μl PI working solution were added to the centrifuge tubes and binded with 100 μl Annexin V binding buffer. After the samples were incubated for 30 minutes on ice and in the dark, 400 μl of Annexin V binding buffer was added to each tube and the samples were measured and analyzed in a BD Accuri™ C6 flow cytometry device.

SH-SY5Y cells = test: Total ROS/Superoxide detection; assay type: cell-based, human
Description: The Total ROS/Superoxide Detection Kit (ENZ-51010, Enzo) was used according to the kit process for evaluating the protective effects of the treatment groups on SH-SY5Y cells seeded at a 2x10^4 density per well in 96-well plates and Aβ was applied. ROS inhibitor N-acetyl cysteine (NAC) was applied at 5 mM concentration to negative control groups 30 minutes before the experiment and after incubation, 100 μL of “ROS/Superoxide Detection Solution” was added to the wells in the kit. The same procedure was done without the application of ROS inhibitor. Fluorometric analysis of stained cells was analyzed with Cytation 3 Cell Imaging Multi-Mode Reader (BioTek) using 490/525 nm and 550/620 nm filter sets.

mutated COS-7 cells = tested on: mutated COS-7 cells; set-up: method as in PMID 27020329; details: mutated COS-7 cells expressing amyloid precursor protein; cited from earlier work
[4] = tested on: low density lipoprotein receptor-related protein 1 (LRP-1) and P-glycoprotein (P-gp); set-up: method as in PMID 22504320; details: by upregulating LRP-1 and P-gp; cited from earlier work
IL-1β gene expression = test: RT-PCR IL-1β gene expression in HMC3 microglia cells; assay type: cell-based, human; details: 24 h
Description: (§2) LPS and/or proinflammatory cytokines like IFN-ɣ, have been used alone or in combination in most in vitro neuroinflammation models to study microglial activation. Therefore, the effects of lyophilized cell free supernatant (CFS)+IFN-ɣ combination, which was determined to increase IL-1β and CD218a cytokine levels most effectively, on IL-1β, TNF-α and IL-8 gene expressions were compared with LPS+IFN-ɣ combination in order to determine the activation concentration.
(§3) RNA isolations were performed in MagNA Pure Compact System (Roche, Germany) using MagNA Pure Compact RNA Isolation Kit® (Catalog No: 04802993001, Roche, Germany) after 24-h. The total RNA amounts of the samples were measured at 260 and 280 nm in the NanoDrop 2000® (Thermo Fisher, USA) spectrophotometer. cDNA was obtained using the Transcriptor High Fidelity cDNA Synthesis Kit® (Catalog no: 05091284001, Roche, Germany) following the kit protocol from […] RNA of each sample. After the cDNA samples were replicated by PCR method, the expression levels were determined with the LightCycler® 480 Real-Time PCR System (Roche, Germany) using the IL-1β, TNF-α and IL-8 primers (PRZ BioTech, Turkey). Actin beta (ACTB) was used as a housekeeping gene. Primer sequences and RT-PCR cycling conditions are shown in S1 and S2 Tables. Results were analyzed according to the changes in the amplification levels compared to the control group with the analysis software of the instrument.

TNF-α gene expression = test: RT-PCR TNF-α gene expression in HMC3 microglia cells; assay type: cell-based, human; details: 24 h
Description: as §2, §3

IL-8 gene expression = test: RT-PCR IL-8 gene expression in HMC3 microglia cells; assay type: cell-based, human; details: 24 h
Description: as §2, §3

CD11b = test: Active microglia marker CD11b in HMC3 cells by flow cytometry; assay type: cell-based, human; details: 24 hours, control 10.1%
Description: HMC3 microglia cells were seeded in 12-well plates at a density of 75x10^3 cells per well and treated with treatment groups for 24 h. Then, cells were detached and centrifuged with Cell Staining Buffer (BioLegend, USA, Cat. No: 420201) for 5 minutes and the supernatant was discarded. Blocking was performed with 5 μl Human TruStain Fcx (BioLegend, USA, Cat. No: 422302) Fc receptor blocker solution diluted in 100 μl Cell Staining Buffer for 10 minutes at room temperature to reduce non-specific binding. The blocker was removed by centrifugation and the cells were stained with 5 μl PE anti-mouse/human CD11b Antibody (BioLegend, USA, Cat. No: 101208) diluted 1:5 in 20 μl Cell Staining Buffer for 15 minutes on ice in the dark. Then, the cells were washed 2 times with 2 ml Cell Staining Buffer and analyzed within 500 μl buffer using the BD Accuri ™ C6 flow cytometer.

SH-SY5Y cell = tested on: SH-SY5Y cell; set-up: method as in PMID 31837307, PMID 32087283; details: LPS alone; cited from earlier work
[5] = HMC3, 10 ng/ml + 10 ng/ml IFN-ɣ
[6] = HMC3, 100 ng/ml + 10 ng/ml IFN-ɣ

## CO[C@H]1/C=C/O[C@@]2(C)Oc3c(C)c(O)c4c(O)c(c(/C=N/N5CCN(C)CC5)c(O)c4c3C2=O)NC(=O)/C(C)=C\C=C\[C@H](C)[C@H](O)[C@@H](C)[C@@H](O)[C@@H](C)[C@H](OC(C)=O)[C@@H]1C [Rifampin, rifampin]
HMC3 microglia cells; 10 μM, 24 hours
  Reduction of HMC3 cell viability compared to the control group: 12.72%
HMC3 microglia cells; 10 μM, 48 hours
  Reduction of HMC3 cell viability compared to the control group: 17.79%
HMC3 microglia cells; 100 μM, 24 hours
  Reduction of HMC3 cell viability compared to the control group: 15.74%
HMC3 microglia cells; 100 μM, 48 hours
  Reduction of HMC3 cell viability compared to the control group: 28.72%
HMC3 microglia cells; HMC3, 24 h, from CI values at 24th hour, 1, 10 and 100 μM tested, read-out: IC50 Values 24h HMC3
  IC50: 33.2 µM
HMC3 microglia cells; HMC3, 48 h, from CI values at 48th hour, 1, 10 and 100 μM tested, read-out: IC50 Values 48h HMC3
  IC50: 31 µM
[1]; 1 μM, 24 hours
  Reduction of differentiated SH-SY5Y cell viability: 30.28%
[1]; 1 μM, 48 hours
  Reduction of differentiated SH-SY5Y cell viability: 17.16%
[1]; 10 μM, 24 hours
  Reduction of differentiated SH-SY5Y cell viability: 46.98%
[1]; 10 μM, 48 hours
  Reduction of differentiated SH-SY5Y cell viability: 25%
[1]; 100 μM, 24 hours
  Reduction of differentiated SH-SY5Y cell viability: 97.24%
[1]; 100 μM, 48 hours
  Reduction of differentiated SH-SY5Y cell viability: 98.61%
[1]; 24 h, from CI values at 24th hour, 1, 10 and 100 μM tested, read-out: IC50 Values 24h SH-SY5Y
  IC50: > 400 µM
[1]; 48 h, from CI values at 48th hour, 1, 10 and 100 μM tested, read-out: IC50 Values 48h SH-SY5Y
  IC50: 64.4 µM
[2]
  CI values compared to the control group: 120.7%
[3]; control 1.6%
  Necrotic effect (Q5-UL): 8.1%
[3]; control 1.9%
  Apoptotic effect (early apoptosis + late apoptosis): 5.8%
[3]; control 96.5%
  Percentage of living cells (Live): 86.2%
SH-SY5Y cells; 30 minutes NAC 5 mM, treated (drugs 100 nM; LPS 100 ng/ml; CFS 1 μg/ml, with IFN-γ) prior to Aβ exposure
  Increase of total amount of ROS compared to the control group, with NAC: 0.25%
SH-SY5Y cells; cells treated (drugs 100 nM; LPS 100 ng/ml; CFS 1 μg/ml, with IFN-γ) before exposure to Aβ, without NAC
  Decrease of total ROS amount according to the Aβ group: 43.14%
SH-SY5Y cells; cells treated (drugs 100 nM; LPS 100 ng/ml; CFS 1 μg/ml, with IFN-γ) before exposure to Aβ, without NAC, not significant
  Increase of total amount of ROS compared to the control group: 0.43%
Mutated COS-7 cells
  Effect on Aβ, tau, and α-synuclein aggregation: minimize Aβ, tau, and α-synuclein aggregation
[4]
  Effect on Aβ clearance: increasing Aβ clearance

## lipopolysaccharide [LPS]
IL-1β gene expression; [5]
  IL-1β expression level compared to the control group: 1.64 fold
IL-1β gene expression; [6]
  IL-1β expression level compared to the control group: 3.21 fold
IL-1β gene expression; HMC3, 1 μg/ml + 10 ng/ml IFN-ɣ
  IL-1β expression level compared to the control group: 1.83 fold
TNF-α gene expression; [5]
  TNF-α expression level compared to the control group: 1.55 fold
TNF-α gene expression; [6]
  TNF-α expression level compared to the control group: 1.41 fold
TNF-α gene expression; HMC3, 1 μg/ml + 10 ng/ml IFN-ɣ
  TNF-α expression level compared to the control group: 0.82 fold
IL-8 gene expression; [5]
  IL-8 expression level compared to the control group: 3.07 fold
IL-8 gene expression; [6]
  IL-8 expression level compared to the control group: 3.88 fold
IL-8 gene expression; HMC3, 1 μg/ml + 10 ng/ml IFN-ɣ
  IL-8 expression level compared to the control group: 13.64 fold
CD11b; [6]
  CD11b antibody levels (positive gate V-R): 42.4%
CD11b; HMC3, 1 μg/ml + 10 ng/ml IFN-ɣ
  CD11b antibody levels (positive gate V-R): 23%
SH-SY5Y cell
  Effect on SH-SY5Y cell viability: no effect
